This note sets out measurements from the OPERA property sets (Mansouri et al. 2018).

Each structure is given as a SMILES string.

Conditions in one data set: not given
Turning to `Nc1ccc2nccnc2c1`, the melting point (usually the temperature, or range, at which the solid turns liquid) is 159 °C.

With `OCCN1CC1`, the boiling point (as a rule, the temperature at which the vapour pressure of the liquid equals the pressure above it) came out at 168 °C.

Turning to `O=Cc1c(Cl)cccc1Cl`, the melting point was determined as 71.5 °C and the ready biodegradability entry is listed as “not readily biodegradable”.

As for `Cc1nn(-c2cc(NS(C)(=O)=O)c(Cl)cc2Cl)c(=O)n1C(F)F`, the log10 vapour pressure (mmHg) was -9.01 and the melting point amounted to 122 °C.

Regarding `CC(C)CN(C)C`, the boiling point is 80.5 °C.

Compound `CCOc1ccc(NC(=O)CN)cc1` came in with a melting point of 100 °C.

Turning to `O=C(O)c1ccc(C(=O)O)c(C(=O)O)c1`, the melting point was found to be 219 °C.

Take `CCOC(=O)CC(SP(=S)(OC)OC)C(=O)OCC` (stereo unspecified): the log10 Henry constant (atm·m³/mol) is -8.31, the log10 Koc (L/kg) was 2.36, the log10 vapour pressure (mmHg) is -5.47 and the melting point was 2.8 °C. The ready biodegradability entry was “not readily biodegradable”.

Turning to `Cc1cc(C)c(C)cc1C`, the boiling point is 197 °C, the log10 Koc (L/kg) worked out at 3.12, the log10 biodegradation half-life (days) turned out to be 0.845 and the log10 vapour pressure (mmHg) was -0.277. The melting point is 79.3 °C.

For the compound `COC(=O)[C@@H]1C2CCC(C[C@@H]1OC(=O)c1ccccc1)N2C` (stereo partly specified), the log10 vapour pressure (mmHg) was -6.72 and the melting point amounted to 98 °C.

Compound `CCCCCC(O)(CC)CC` gave a boiling point of 199 °C.

Turning to `CCOP(=S)(OCC)SC1OCCOC1SP(=S)(OCC)OCC` (stereo unspecified), the melting point is -20 °C.

The compound `ClCC(Br)CBr` (stereo unspecified) yielded a boiling point of 196 °C, a log10 Koc (L/kg) of 1.85, a log10 vapour pressure (mmHg) of -0.237 and a melting point of 6 °C. Also, the ready biodegradability result is “not readily biodegradable”.

The compound `C=C(C)C(CC)CC` had a boiling point of 110 °C and a melting point of -113 °C.

As for `O=Nc1ccc(Nc2ccccc2)cc1`, the boiling point amounted to 292 °C, the melting point came out at 143 °C and the ready biodegradability entry is on record as “not readily biodegradable”.

For the compound `CCCCCCC(=O)CCCC`, the boiling point came to 227 °C and the melting point is 2 °C.

`CC1CCCc2ccccc21` (stereo unspecified) displayed a boiling point of 221 °C.

`COc1cccc(C)c1OC`: the boiling point is 204 °C.

For `Oc1ccc(Sc2ccc(O)cc2)cc1`, the melting point was found to be 155 °C.

Compound `CCC(=O)c1ccco1` yielded a melting point of 28 °C.

The compound `CC(C)(N)c1ccccc1` came in with a boiling point of 196 °C.

As to `CC(=O)CC(=O)Nc1ccc(C)cc1`, the ready biodegradability entry is recorded as “readily biodegradable”.

In turn, `O=[N+]([O-])c1ccccc1CO` displayed a boiling point of 270 °C and a melting point of 74 °C.

`Nc1nc[nH]n1`: the log10 Koc (L/kg) is 1.25, the log10 vapour pressure (mmHg) is -6.36, the melting point stood at 159 °C and the ready biodegradability result is listed as “not readily biodegradable”.

As to `C=Cc1ccccc1CC`, the boiling point was found to be 187 °C, the melting point is -75.5 °C and the ready biodegradability result is recorded as “not readily biodegradable”.

Compound `CC(C)=CCCc1ccoc1` displayed a boiling point of 186 °C.

Compound `O[C@@H]1[C@@H](O)[C@@H]2OC[C@@H](O2)[C@H]1O` gave a log10 vapour pressure (mmHg) of -7.12 and a melting point of 183 °C.

As for `CCCC(=O)c1cc(O)c(O)cc1O`, the melting point was 154 °C.

`CC12CCC(CC1=NO)C2(C)C` (stereo unspecified) came in with a melting point of 118 °C.

`COC(=O)C(C)N(C(=O)c1ccccc1)c1ccc(F)c(Cl)c1` (stereo unspecified) showed a melting point of 85 °C.

Regarding `CC(=O)Oc1ccccc1C(=O)Oc1ccccc1C(=O)O`, the melting point stood at 159 °C.

As for `CC1(C)S[C@@H]2[C@H](N3C(=O)C(c4ccccc4)NC3(C)C)C(=O)N2[C@H]1C(=O)O` (stereo partly specified), the melting point was found to be 190 °C.

As for `O=C(NO)c1ccccc1O`, the melting point stood at 168 °C.

The compound `Oc1ccc2c(c1)Cc1ccccc1-2` gave a melting point of 168 °C.

The compound `Cn1c(=O)c2[nH]cnc2n(C)c1=O` yielded a melting point of 273 °C.

In the case of `C=CC[Si](Cl)(Cl)Cl`, the boiling point amounted to 118 °C, the log10 vapour pressure (mmHg) came to 1.25 and the melting point was determined as 35 °C.

Compound `COc1cc(OC)c2ccc(=O)oc2c1` came in with a melting point of 149 °C.

Take `S=C1NCCS1`: the melting point was determined as 106 °C.

With `Fc1c(F)c(F)c(Sc2c(F)c(F)c(F)c(F)c2F)c(F)c1F`, the melting point worked out at 87 °C.

The compound `CC(C)CCON=O` returned a boiling point of 99.2 °C.

Take `OCC(Cl)CCl` (stereo unspecified): the boiling point was 184 °C.

For the compound `CCC(=O)Oc1ccc(/C(CC)=C(\CC)c2ccc(OC(=O)CC)cc2)cc1`, the melting point came to 104 °C.

Staying with this data set, now noted: fish.
The compound `CCOC(=O)CC(SP(=S)(OC)OC)C(=O)OCC` (stereo unspecified) yielded a log10 BCF of 1.52 and a log10 biotransformation half-life (days) of 0.29.

`ClCC(Br)CBr` (stereo unspecified): the log10 BCF is 1.06 and the log10 biotransformation half-life (days) is -1.14.

`Nc1nc[nH]n1` came in with a log10 BCF of 0.49.

The compound `Brc1ccc(Oc2c(Br)cccc2Br)c(Br)c1` showed a log10 BCF of 5.88.
